# According to US20210002649A1, “COMPOSITIONS AND METHODS FOR TREATING CANCER” (Beth Israel Deaconess Medical Center, Inc., priority 2018, published 2021):
# Where a SMILES comes first, the peptide text is derived from it. The star is where a group is joined. Cbz = O=C(OCc1ccccc1)*
# How the values were obtained:
# WWP1 = target: T1, WWP1 (Mus musculus, UniProt Q8BZZ3); assay: Active CD8 T cell tumor infiltration, syngenic mice model; type: in vivo
# T1 construct: from tissue
# [1] = tested on: JAK-STAT, NF-kB, and TNFα pathway; assay: RNA-seq analysis of immune suppressive pathways in Hi-Myc mice; type: in vivo; details: I3C treated Hi-Myc mice, versus vehicle (FIGS. 17-20)
# [2] = tested on: PD-L1 protein levels in WWP1 knock-out cells; assay: PD-L1 protein levels in WWP1 knock-out cells (gel image); type: cell-based; details: MG132 treatment (FIG. 12)
# T1 sequence (Q8BZZ3 whole entry): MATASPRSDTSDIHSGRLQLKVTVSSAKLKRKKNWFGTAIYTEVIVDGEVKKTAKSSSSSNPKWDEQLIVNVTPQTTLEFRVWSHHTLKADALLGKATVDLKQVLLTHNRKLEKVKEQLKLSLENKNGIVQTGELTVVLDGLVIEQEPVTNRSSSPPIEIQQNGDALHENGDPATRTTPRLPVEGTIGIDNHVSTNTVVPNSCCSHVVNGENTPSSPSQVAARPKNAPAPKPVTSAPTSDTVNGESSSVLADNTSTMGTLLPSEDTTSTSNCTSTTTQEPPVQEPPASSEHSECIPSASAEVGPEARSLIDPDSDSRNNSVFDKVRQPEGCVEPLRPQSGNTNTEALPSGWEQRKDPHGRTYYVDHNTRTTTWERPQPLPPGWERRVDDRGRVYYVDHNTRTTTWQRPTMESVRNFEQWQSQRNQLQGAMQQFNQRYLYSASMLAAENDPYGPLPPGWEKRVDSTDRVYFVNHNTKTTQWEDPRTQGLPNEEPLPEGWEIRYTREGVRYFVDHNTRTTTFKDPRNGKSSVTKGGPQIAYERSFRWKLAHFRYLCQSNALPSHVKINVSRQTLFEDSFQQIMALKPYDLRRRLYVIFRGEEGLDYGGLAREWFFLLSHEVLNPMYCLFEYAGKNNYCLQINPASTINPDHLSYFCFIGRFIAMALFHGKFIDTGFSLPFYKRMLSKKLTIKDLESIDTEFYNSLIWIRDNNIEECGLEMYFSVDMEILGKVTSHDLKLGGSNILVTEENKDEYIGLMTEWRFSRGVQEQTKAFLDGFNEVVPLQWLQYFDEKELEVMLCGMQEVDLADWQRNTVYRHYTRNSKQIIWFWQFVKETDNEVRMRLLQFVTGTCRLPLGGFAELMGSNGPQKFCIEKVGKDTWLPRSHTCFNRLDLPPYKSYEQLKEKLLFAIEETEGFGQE
Compound,active CD8 T cell tumor infiltration (WWP1; syngenic mice (FIG. 16)),"tumor size (WWP1; tumors, after WWP1 inhibition by I3C)",immune suppressive pathways (RNA-seq) [1],PD-L1 protein levels [2]
"OCc1c[nH]c2ccccc12 [I3C, indole-3-carbinol]",triggers active CD8 T cell tumor infiltration,reducing tumor size,"down-regulation of multiple immune suppressive pathway (JAK-STAT, NF-kB, and TNFα pathway)",
CC(C)C[C@@H](C=O)NC(=O)[C@H](CC(C)C)NC(=O)[C@H](CC(C)C)NC(=O)OCc1ccccc1 [MG132] (Cbz-Leu-Leu-Leu-aldehyde),,,,restored PD-L1 protein levels
